Measured values from PMC2576176, “Direct activation of Transient Receptor Potential Vanilloid 1(TRPV1) by Diacylglycerol (DAG)” (Molecular Pain, 2008).
pEC50: −log10 of the molar value.

Molecular target: T1, TRPV1 (transient receptor potential vanilloid 1, capsaicin receptor) (Rattus norvegicus, UniProt O35433)
T1 construct: full-length wild-type rat TRPV1 in pcDNA3.1(+), transient transfection in HEK 293 cells; fura-2 Ca2+ imaging
Experiment: fura-2 Ca2+ imaging concentration-response in TRPV1-expressing HEK […] cells; whole-cell patch clamp, cobalt uptake, Y511A mutant and competition with capsaicin
Assay type: cell-based

T1 sequence (O35433 whole entry): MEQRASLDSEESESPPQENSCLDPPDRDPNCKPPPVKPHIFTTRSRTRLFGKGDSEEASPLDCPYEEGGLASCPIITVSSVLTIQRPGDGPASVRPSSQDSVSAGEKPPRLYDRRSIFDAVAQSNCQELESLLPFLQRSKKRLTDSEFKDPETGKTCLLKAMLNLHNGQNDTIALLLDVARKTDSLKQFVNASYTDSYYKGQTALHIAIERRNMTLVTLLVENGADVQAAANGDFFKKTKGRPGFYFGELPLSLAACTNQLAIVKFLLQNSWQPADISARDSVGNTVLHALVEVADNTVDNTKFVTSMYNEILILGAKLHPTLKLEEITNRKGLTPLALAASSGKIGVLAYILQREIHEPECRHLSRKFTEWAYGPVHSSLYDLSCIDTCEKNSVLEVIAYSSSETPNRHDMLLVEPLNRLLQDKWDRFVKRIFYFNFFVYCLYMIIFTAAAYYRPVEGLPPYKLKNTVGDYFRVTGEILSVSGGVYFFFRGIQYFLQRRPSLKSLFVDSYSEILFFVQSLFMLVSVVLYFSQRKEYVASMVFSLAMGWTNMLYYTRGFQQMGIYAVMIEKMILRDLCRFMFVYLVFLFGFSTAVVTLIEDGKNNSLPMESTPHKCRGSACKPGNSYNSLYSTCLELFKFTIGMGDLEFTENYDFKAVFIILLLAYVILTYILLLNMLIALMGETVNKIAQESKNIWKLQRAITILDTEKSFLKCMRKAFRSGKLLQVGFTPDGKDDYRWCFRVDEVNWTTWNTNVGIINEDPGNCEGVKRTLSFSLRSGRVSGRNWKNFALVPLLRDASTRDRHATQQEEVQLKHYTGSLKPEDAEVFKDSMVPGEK

pEC50: 4.89
Structure (SMILES): CCCCCCCC/C=C\CCCCCCCC(=O)OC[C@H](CO)OC(C)=O [OAG, 1-oleoyl-2-acetyl-sn-glycerol]
